Data taken from PubChem BioAssay AID330 (DTP/NCI, 2004).
Where “and” joins values, the source holds several entries; their conditions need not be identical. Identical values can stand only once. Toxic doses and inconclusive results are not listed. Rule for the calls: active = survival T/C of 150% or more; inactive = T/C below 125% in these data.

System: P388 leukemia ip, CD2F1 mice, survival T/C
Assay: NCI In Vivo Anticancer Drug Screen. Data for tumor model P388 Leukemia (intraperitoneal) in CD2F1 (CDF1) mice
Settings: endpoint: median survival time, higher = longer survival
Procedure, shortened: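 Mice carrying the transplanted tumor received test compound or vehicle. Survival was recorded in each group, and the value is the treated-group measurement divided by that of the vehicle-treated control group.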

[1] = dose: 100.0 mg/kg/injection, schedule: Q01DX001 (ip), vehicle: Klucel (hydroxypropylcellulose) (HPC)
[2] = dose: 200.0 mg/kg/injection, schedule: Q01DX001 (ip), vehicle: Klucel (hydroxypropylcellulose) (HPC)
[3] = dose: 50.0 mg/kg/injection, schedule: Q01DX009 (ip), vehicle: Klucel (hydroxypropylcellulose) (HPC)
[4] = dose: 100.0 mg/kg/injection, schedule: Q01DX009 (ip), vehicle: Klucel (hydroxypropylcellulose) (HPC)
[5] = dose: 200.0 mg/kg/injection, schedule: Q01DX009 (ip), vehicle: Klucel (hydroxypropylcellulose) (HPC)
[6] = dose: 12.5 mg/kg/injection, schedule: Q01DX009 (ip), vehicle: saline
[7] = dose: 25.0 mg/kg/injection, schedule: Q01DX009 (ip), vehicle: saline
[8] = dose: 12.5 mg/kg/injection, schedule: Q01DX009 (ip), vehicle: other
[9] = dose: 25.0 mg/kg/injection, schedule: Q01DX009 (ip), vehicle: other
[10] = dose: 50.0 mg/kg/injection, schedule: Q01DX009 (ip), vehicle: other
[11] = dose: 100.0 mg/kg/injection, schedule: Q01DX009 (ip), vehicle: other
[12] = dose: 200.0 mg/kg/injection, schedule: Q01DX009 (ip), vehicle: other
[13] = dose: 50.0 mg/kg/injection, schedule: Q01DX001 (ip), vehicle: saline
[14] = dose: 100.0 mg/kg/injection, schedule: Q01DX001 (ip), vehicle: saline
[15] = dose: 50.0 mg/kg/injection, schedule: Q01DX009 (ip), vehicle: saline with Tween-80
[16] = dose: 100.0 mg/kg/injection, schedule: Q01DX009 (ip), vehicle: saline with Tween-80
[17] = dose: 200.0 mg/kg/injection, schedule: Q01DX009 (ip), vehicle: saline with Tween-80

Measured: T/C

Cc1ccc(S(=O)(=O)NN=C(C(=O)O)C(=O)O)cc1
inactive: dose: 12.5 mg/kg/injection, schedule: Q01DX009 (ip), vehicle: distilled water + Tween-80 101 % of control | dose: 25.0 mg/kg/injection, schedule: Q01DX009 (ip), vehicle: distilled water + Tween-80 102 % of control | dose: 50.0 mg/kg/injection, schedule: Q01DX009 (ip), vehicle: distilled water + Tween-80 100 % of control | dose: 200.0 mg/kg/injection, schedule: Q01DX009 (ip), vehicle: distilled water + Tween-80 90 % of control

COc1ccc2c(NCCCCNc3c4ccccc4nc4cc(OC)ccc34)c3ccccc3nc2c1
inactive: dose: 0.62 mg/kg/injection, schedule: Q01DX009 (ip), vehicle: other 101 % of control | dose: 1.25 mg/kg/injection, schedule: Q01DX009 (ip), vehicle: other 102 % of control | dose: 2.5 mg/kg/injection, schedule: Q01DX009 (ip), vehicle: other 108 % of control | dose: 5.0 mg/kg/injection, schedule: Q01DX009 (ip), vehicle: other 101 % of control | dose: 10.0 mg/kg/injection, schedule: Q01DX009 (ip), vehicle: other 107 % of control | dose: 20.0 mg/kg/injection, schedule: Q01DX009 (ip), vehicle: other 110 % of control

CC(=O)O[C@H]1[C@@H]2c3c(ccc4c(=O)cc(-c5ccccc5)oc34)O[C@@H]2OC1(C)C
inactive: dose: 0.98 mg/kg/injection, schedule: Q01DX005 (ip), vehicle: Klucel (hydroxypropylcellulose) (HPC) 100 % of control | dose: 1.95 mg/kg/injection, schedule: Q01DX005 (ip), vehicle: Klucel (hydroxypropylcellulose) (HPC) 98 % of control | dose: 3.9 mg/kg/injection, schedule: Q01DX005 (ip), vehicle: Klucel (hydroxypropylcellulose) (HPC) 86 % of control

O=Cc1c(-c2ccc(-c3ccccc3)cc2)nc2n1CCS2
inactive: [1] 100 % of control | [2] 97 % of control

CSc1nc(N)c(C(=O)Nc2ccccc2)s1
inactive: [3] 103 % of control | [4] 101 % of control | [5] 100 % of control

CCOc1ccc(NC(=O)C(C(C)N2CCCCC2)N2CCCCC2)cc1 (stereo not given)
inactive: [6] 93 % of control | [7] 87 % of control

CNC(=S)NNc1ccccn1
inactive: [8] 105 % of control | [9] 102 % of control | [10] 104 % of control | [11] 101 % of control | [12] 95 % of control

CCOc1ccc(NC(=O)OCc2c3ccccc3cc3ccccc23)cc1
inactive: [3] 100 % of control | [4] 96 % of control | [5] 105 % of control

CC1(C)CC(C)(OC(=O)c2ccccc2Cl)N=N1 (stereo not given)
inactive: dose: 11.0 mg/kg/injection, schedule: Q01DX009 (ip), vehicle: other 97 % of control | [8] 107 % of control | dose: 16.5 mg/kg/injection, schedule: Q01DX009 (ip), vehicle: other 97 % of control | [9] 108 % of control | dose: 37.5 mg/kg/injection, schedule: Q01DX009 (ip), vehicle: other 116 % of control | [10] 103 % of control | [11] 112 % of control | [12] 116 % of control

CSP(C)(=O)CCC(C)=O (stereo not given)
inactive: dose: 25.0 mg/kg/injection, schedule: Q01DX001 (ip), vehicle: saline 100 % of control | [13] 100 % of control | [14] 102 % of control

Cc1csc2ccc(Cl)cc12
inactive: [1] 95 % of control | [2] 107 % of control | dose: 400.0 mg/kg/injection, schedule: Q01DX001 (ip), vehicle: Klucel (hydroxypropylcellulose) (HPC) 107 % of control

Fc1cccc(NC(=S)SCc2ccco2)c1
inactive: dose: 50.0 mg/kg/injection, schedule: Q01DX009 (ip), vehicle: suspension in saline 93 % of control | dose: 100.0 mg/kg/injection, schedule: Q01DX009 (ip), vehicle: suspension in saline 90 % of control | dose: 200.0 mg/kg/injection, schedule: Q01DX009 (ip), vehicle: suspension in saline 107 % of control

CCCCCCCCN1CCCN(/N=C/c2c3c(O)c4c(O)c(C)c5c(c4c2O)C(=O)C(C)(O/C=C/C(OC)C(C)C(OC(C)=O)C(C)C(O)C(C)C(O)C(C)/C=C/C=C(C)C(=O)N3)O5)CC1 (stereo not given)
inactive: [15] 97 % of control | [16] 100 % of control | [17] 91 % of control

COc1ccc(-c2cc(-c3ccccc3)[nH]c(=O)c2C#N)cc1
inactive: dose: 12.5 mg/kg/injection, schedule: Q01DX009 (ip), vehicle: acid diluted with saline 101 % of control | dose: 25.0 mg/kg/injection, schedule: Q01DX009 (ip), vehicle: acid diluted with saline 99 % of control | dose: 50.0 mg/kg/injection, schedule: Q01DX009 (ip), vehicle: acid diluted with saline 101 % of control

CCOc1cccc(/C=N/NC(=O)C(=O)Nc2cccc(C(F)(F)F)c2)c1O
inactive: dose: 12.5 mg/kg/injection, schedule: Q01DX005 (ip), vehicle: Klucel (hydroxypropylcellulose) (HPC) 98 % of control | dose: 25.0 mg/kg/injection, schedule: Q01DX005 (ip), vehicle: Klucel (hydroxypropylcellulose) (HPC) 95 % of control | dose: 50.0 mg/kg/injection, schedule: Q01DX005 (ip), vehicle: Klucel (hydroxypropylcellulose) (HPC) 89 % of control and 90 % of control

N#Cc1c(N)nc2c(c1N)CC(CO)O2 (stereo not given)
inactive: [15] 96 % of control | [16] 93 % of control

C=CCn1c(=O)c2[nH]c(Cl)nc2n(CC)c1=O
inactive: dose: 16.0 mg/kg/injection, schedule: Q01DX009 (ip), vehicle: Klucel (hydroxypropylcellulose) (HPC) 100 % of control and 105 % of control | dose: 32.0 mg/kg/injection, schedule: Q01DX009 (ip), vehicle: Klucel (hydroxypropylcellulose) (HPC) 106 % of control and 94 % of control | dose: 64.0 mg/kg/injection, schedule: Q01DX009 (ip), vehicle: Klucel (hydroxypropylcellulose) (HPC) 102 % of control and 106 % of control

CCOC(=O)C1=C(C(=O)c2ccc(OC)cc2)C(c2c(Cl)cccc2Cl)C(C(=O)c2ccc(OC)cc2)=C(C(=O)OCC)N1
inactive: dose: 30.0 mg/kg/injection, schedule: Q01DX005 (ip), vehicle: saline with Tween-80 86 % of control | dose: 60.0 mg/kg/injection, schedule: Q01DX005 (ip), vehicle: saline with Tween-80 102 % of control and 93 % of control | dose: 120.0 mg/kg/injection, schedule: Q01DX005 (ip), vehicle: saline with Tween-80 94 % of control | dose: 240.0 mg/kg/injection, schedule: Q01DX005 (ip), vehicle: saline with Tween-80 93 % of control

O=C(O)c1cc2c([N+](=O)[O-])cccc2[se]1
inactive: [6] 100 % of control | [7] 100 % of control | dose: 50.0 mg/kg/injection, schedule: Q01DX009 (ip), vehicle: saline 94 % of control and 97 % of control

COC(=O)c1ccc(NCC(=N)N)cc1
inactive: [13] 100 % of control | [14] 100 % of control | dose: 200.0 mg/kg/injection, schedule: Q01DX001 (ip), vehicle: saline 104 % of control

[O-][n+]1ccccc1[S][Sn]([Cl])([Cl])[S]c1cccc[n+]1[O-]
inactive: [15] 94 % of control | [16] 106 % of control | [17] 102 % of control

CCC1C2C(C(C)c3c[nH]c4ccccc34)NC(=O)C23C(=O)/C=C\C(=O)C(O)/C(C)=C/C(C)C/C=C/C3C2OC12C (stereo not given)
inactive: dose: 0.38 mg/kg/injection, schedule: Q01DX005 (ip), vehicle: Klucel (hydroxypropylcellulose) (HPC) 105 % of control and 108 % of control | dose: 0.75 mg/kg/injection, schedule: Q01DX005 (ip), vehicle: Klucel (hydroxypropylcellulose) (HPC) 110 % of control and 118 % of control | dose: 1.5 mg/kg/injection, schedule: Q01DX005 (ip), vehicle: Klucel (hydroxypropylcellulose) (HPC) 106 % of control and 122 % of control
